According to patent US4148795A, “Dithiocarbamate ester bactericides and fungicides” (American Cyanamid Company, priority 1976, dated 1979):
“And” between values parts separate entries of the source, which are not always exact repeats. Equal values may be shown once. Read-outs that look alike come from different tables or passages of the source.

Tests used:
Aspergillus niger [1] = assay: Spore germination inhibition; format: cell-based; settings: 24 hours
Source text: (§1) The test procedure involves the preparation of a 100, 10 or 1 ppm. suspension of test compound in water. The solutions are placed in one dram "opticlear" vials and separately inoculated with one drop of a spore suspension prepared from seven-day cultures of Aspergillus niger and 14-day old cultures of Monilinia fructicola and Stemphylium sarcinaeforme,all grown on potato-dextrose agar. The vials containing the separately inoculated solutions of test compounds are then capped and placed on a rotating tumbler for 24 hours to assure contact of the organism with the test compound. After 24 hours, the vials are removed and examined for inhibition of […].

Monilinia fructicola [2] = assay: Spore germination inhibition; format: cell-based; settings: for inhibition at 1 ppm / inhibition at 10 ppm: 24 hours; for inhibition at 100 ppm: 24 h, read-out: % Inhibition of Spore Germination
Source text: as §1

[3] = tested on: Stemphylium sarcinaeforme; assay: Spore germination inhibition; format: cell-based; settings: Stemphylium sarciniforme; for inhibition at 100 ppm: 24 h, read-out: % Inhibition of Spore Germination; for inhibition at 1 ppm / inhibition at 10 ppm: 24 hours
Source text: as §1

Aspergillus niger [4] = assay: Agar dilution plate; format: cell-based; settings: An; 100 ppm, 72 hours at 23° C
Description: (§2) Test compounds were incorporated in a Sabouraud's dextrose agar in an amount sufficient to provide the active ingredient in a concentration of about 100 ppm. A twenty-ml. sample of the agar mixture is placed in a petri dish and permitted to solidify. An agar sample is inoculated with the test organism set forth below and then covered and incubated for a period of about 72 hours at 23° C. After incubation, growth observations are made. The test results are recorded and the test is repeated twice for the purpose of comparison.
(§3) The data obtained with a variety of test organisms is shown in the table below, and ratings are shown as 0 or 5. O indicates no control, 5 indicates 100% effectiveness of the test compound against the specified organism.

Fusarium lycopersici = assay: Agar dilution plate; format: cell-based; settings: Fl; 100 ppm, 72 hours at 23° C
Description: as §2, §3

Monilinia fructicola [5] = assay: Agar dilution plate; format: cell-based; settings: Mf; 100 ppm, 72 hours at 23° C
Description: as §2, §3

Pythium de Baryanum = assay: Agar dilution plate; format: cell-based; settings: Pd; 100 ppm, 72 hours at 23° C
Description: as §2, §3

Rhizoctonia solani = assay: Agar dilution plate; format: cell-based; settings: Rs; 100 ppm, 72 hours at 23° C
Description: as §2, §3

[6] = tested on: Stemphylium sarcinaeforme; assay: Agar dilution plate; format: cell-based; settings: Ss; 100 ppm, 72 hours at 23° C
Description: as §2, §3
Ss= Stemphylium sarcinaeforme

Pseudomonas solaracaerum = format: cell-based; settings: 100 ppm, 72 hours at 23° C
[7] = tested on: Collectotrichum lagenarium; assay: Agar dilution plate; format: cell-based; settings: Cl; 100 ppm, 72 hours at 23° C
Description: as §2, §3
Cl= Collectotrichum lagenarium

Verticillium albo-atrum = assay: Agar dilution plate; format: cell-based; settings: Va; 100 ppm, 72 hours at 23° C
Description: as §2, §3
Va= Verticillium albo-atrum

Phytophthora infestans = format: in vivo; set-up: scale not given here; settings: Tomato Late Blight, five days
Piricularia oryzae = format: in vivo; set-up: scale not given here; settings: Rice Blast, five days
Venturia inaequalis = settings: in vivo; also: key: 5: clean, no disease; 4: trace of disease; 3: slight disease; 2: moderate disease; 1: severe disease; 0: like controls
Aerobacter aerogenes = format: cell-based; settings: 100 ppm; subcultures 72 hours at 37° C; also: key: 0: No Effect; 9: Kill of Bacteria; 5: Stasis, but not Kill of all Bacteria
Staphylococcus aureus = format: cell-based; settings: 100 ppm; subcultures 72 hours at 37° C; also: key: 0: No Effect; 9: Kill of Bacteria; 5: Stasis, but not Kill of all Bacteria
Xanthomonas vesicatoria = format: cell-based; settings: 100 ppm; subcultures 72 hours at 37° C; also: key: 0: No Effect; 9: Kill of Bacteria; 5: Stasis, but not Kill of all Bacteria

With `CN(C)C(=S)SC(C[N+](=O)[O-])c1cccc2ccccc12` (stereo not drawn) [Example 31, 1-Naphthyl-2-nitroethyl Dimethyldithiocarbamate] the inhibition at 1 ppm (Aspergillus niger [1]) was 0%, the inhibition at 10 ppm (Aspergillus niger [1]) was 0% and the inhibition at 100 ppm (Aspergillus niger [1]) was 100%. For the same compound, the inhibition at 1 ppm (Monilinia fructicola [2]) was 0%, the inhibition at 10 ppm (Monilinia fructicola [2]) was 0% and the inhibition at 100 ppm (Monilinia fructicola [2]) was 100%. It also gave an inhibition at 100 ppm [3] of 100%, an inhibition at 1 ppm [3] of 0% and an inhibition at 10 ppm [3] of 0%. The “Agar Dilution Plate rating” value (Aspergillus niger [4]) was 0, the “Agar Dilution Plate rating” value (Fusarium lycopersici) was 0 and the “Agar Dilution Plate rating” value (Monilinia fructicola [5]) was 5 (100% effectiveness of the test compound against the specified organism). For the same compound, the “Agar Dilution Plate rating” value (Pythium de Baryanum) was 5 (100% effectiveness of the test compound against the specified organism), the “Agar Dilution Plate rating” value (Rhizoctonia solani) was 5 (100% effectiveness of the test compound against the specified organism) and the “Agar Dilution Plate rating” value [6] was 5 (100% effectiveness of the test compound against the specified organism). For the same compound, the “Agar Dilution Plate rating” value (Pseudomonas solaracaerum) was 0, the “Agar Dilution Plate rating” value [7] was 5 (100% effectiveness of the test compound against the specified organism) and the “Agar Dilution Plate rating” value (Verticillium albo-atrum) was 5 (100% effectiveness of the test compound against the specified organism). For the same compound, the disease control index (Phytophthora infestans; at 100 ppm) was 5, the disease control index (Phytophthora infestans; at 500 ppm) was 5 and the disease control index (Piricularia oryzae; at 75 ppm) was 4. The disease control index (Piricularia oryzae; at 500 ppm) was 5 and the disease control index (Venturia inaequalis) was 4.

`CN(C)C(=S)SC(C[N+](=O)[O-])c1ccc(Cl)s1` (stereo not drawn) [Example 34, 5-Chloro-α-(nitromethyl)-2-thenyl Dimethyldithiocarbamate] gave an inhibition at 1 ppm (Aspergillus niger [1]) of 0%, an inhibition at 10 ppm (Aspergillus niger [1]) of 100% and an inhibition at 100 ppm (Aspergillus niger [1]) of 100%. The inhibition at 1 ppm (Monilinia fructicola [2]) was 0%, the inhibition at 10 ppm (Monilinia fructicola [2]) was 100% and the inhibition at 100 ppm (Monilinia fructicola [2]) was 100%. The inhibition at 100 ppm [3] was 100%, the inhibition at 1 ppm [3] was 0% and the inhibition at 10 ppm [3] was 100%. For the same compound, the “Agar Dilution Plate rating” value (Aspergillus niger [4]) was 0, the “Agar Dilution Plate rating” value (Fusarium lycopersici) was 0 and the “Agar Dilution Plate rating” value (Monilinia fructicola [5]) was 0. For the same compound, the “Agar Dilution Plate rating” value (Pythium de Baryanum) was 0, the “Agar Dilution Plate rating” value (Rhizoctonia solani) was 5 (100% effectiveness of the test compound against the specified organism) and the “Agar Dilution Plate rating” value [6] was 0. The “Agar Dilution Plate rating” value (Pseudomonas solaracaerum) was 0, the “Agar Dilution Plate rating” value [7] was 5 (100% effectiveness of the test compound against the specified organism) and the “Agar Dilution Plate rating” value (Verticillium albo-atrum) was 0. It also gave a disease control index (Phytophthora infestans; at 500 ppm) of 3, a disease control index (Piricularia oryzae; at 75 ppm) of 1 and a disease control index (Piricularia oryzae; at 500 ppm) of 3.

Compound `CC(=O)Oc1ccc(C(C[N+](=O)[O-])SC(=S)N(C)C)cc1` (stereo not drawn) [Example 24, 4-Acetoxy-α-(nitromethyl)benzyl Dimethyldithiocarbamate] has an inhibition at 1 ppm (Aspergillus niger [1]) of 0%, an inhibition at 10 ppm (Aspergillus niger [1]) of 100% and an inhibition at 100 ppm (Aspergillus niger [1]) of 100%. For the same compound, the inhibition at 1 ppm (Monilinia fructicola [2]) was 0%, the inhibition at 10 ppm (Monilinia fructicola [2]) was 100% and the inhibition at 100 ppm (Monilinia fructicola [2]) was 100%. For the same compound, the inhibition at 100 ppm [3] was 0%, the “Agar Dilution Plate rating” value (Aspergillus niger [4]) was 0 and the “Agar Dilution Plate rating” value (Fusarium lycopersici) was 0. For the same compound, the “Agar Dilution Plate rating” value (Monilinia fructicola [5]) was 5 (100% effectiveness of the test compound against the specified organism), the “Agar Dilution Plate rating” value (Pythium de Baryanum) was 0 and the “Agar Dilution Plate rating” value (Rhizoctonia solani) was 0. For the same compound, the “Agar Dilution Plate rating” value [6] was 5 (100% effectiveness of the test compound against the specified organism), the “Agar Dilution Plate rating” value (Pseudomonas solaracaerum) was 0 and the “Agar Dilution Plate rating” value [7] was 5 (100% effectiveness of the test compound against the specified organism). For the same compound, the “Agar Dilution Plate rating” value (Verticillium albo-atrum) was 5 (100% effectiveness of the test compound against the specified organism), the disease control index (Phytophthora infestans; at 100 ppm) was 3 and the disease control index (Phytophthora infestans; at 500 ppm) was 5. The disease control index (Piricularia oryzae; at 75 ppm) was 3, the disease control index (Piricularia oryzae; at 500 ppm) was 4 and the disease control index (Venturia inaequalis) was 5.

With `CCN(CC)C(=S)SCC(CSC(=S)N(CC)CC)[N+](=O)[O-]` [Example 2, 2-Nitrotrimethylene Diethyldithiocarbamate] the “Agar Dilution Plate rating” value (Aspergillus niger [4]) was 0, the “Agar Dilution Plate rating” value (Fusarium lycopersici) was 0 and the “Agar Dilution Plate rating” value (Monilinia fructicola [5]) was 0. For the same compound, the “Agar Dilution Plate rating” value (Pythium de Baryanum) was 0, the “Agar Dilution Plate rating” value (Rhizoctonia solani) was 0 and the “Agar Dilution Plate rating” value [6] was 0. For the same compound, the “Agar Dilution Plate rating” value (Pseudomonas solaracaerum) was 0, the “Agar Dilution Plate rating” value [7] was 5 (100% effectiveness of the test compound against the specified organism) and the “Agar Dilution Plate rating” value (Verticillium albo-atrum) was 0. For the same compound, the disease control index (Phytophthora infestans; 150 ppm) was 4, the disease control index (Phytophthora infestans; 300 ppm) was 4 and the disease control index (Phytophthora infestans; 600 ppm) was 5. It also gave a disease control index (Phytophthora infestans; 1200 ppm) of 5, a disease control index (Piricularia oryzae; 150 ppm) of 4 and a disease control index (Piricularia oryzae; 300 ppm) of 4. The disease control index (Piricularia oryzae; 600 ppm) was 5, the disease control index (Piricularia oryzae; 1200 ppm) was 5 and the disease control index (Venturia inaequalis) was 5.

`CCN(CC)C(=S)SC(C[N+](=O)[O-])c1ccccc1` (stereo not drawn) [Example 19, α-(Nitromethyl)benzyl Diethyldithiocarbamate] was tested, and the “Agar Dilution Plate rating” value (Aspergillus niger [4]) was 0, the “Agar Dilution Plate rating” value (Fusarium lycopersici) was 0 and the “Agar Dilution Plate rating” value (Monilinia fructicola [5]) was 5 (100% effectiveness of the test compound against the specified organism). The “Agar Dilution Plate rating” value (Pythium de Baryanum) was 0, the “Agar Dilution Plate rating” value (Rhizoctonia solani) was 0 and the “Agar Dilution Plate rating” value [6] was 0. The “Agar Dilution Plate rating” value (Pseudomonas solaracaerum) was 0, the “Agar Dilution Plate rating” value [7] was 0 and the “Agar Dilution Plate rating” value (Verticillium albo-atrum) was 0. The disease control index (Phytophthora infestans; 150 ppm) was 3, the disease control index (Phytophthora infestans; 300 ppm) was 3 and the disease control index (Phytophthora infestans; 600 ppm) was 3. The disease control index (Phytophthora infestans; 1200 ppm) was 3, the disease control index (Piricularia oryzae; 150 ppm) was 3 and the disease control index (Piricularia oryzae; 300 ppm) was 3. For the same compound, the disease control index (Piricularia oryzae; 600 ppm) was 5, the disease control index (Piricularia oryzae; 1200 ppm) was 5 and the disease control index (Venturia inaequalis) was 5 and 0.

Work on `CCC(CSC(=S)N(C)C)[N+](=O)[O-]` (stereo not drawn) [Example 6, 2-Nitrobutyl Dimethyldithiocarbamate] yielded an inhibition at 1 ppm (Aspergillus niger [1]) of 0%, an inhibition at 10 ppm (Aspergillus niger [1]) of 100% and an inhibition at 100 ppm (Aspergillus niger [1]) of 100%. For the same compound, the inhibition at 1 ppm (Monilinia fructicola [2]) was 100%, the inhibition at 10 ppm (Monilinia fructicola [2]) was 100% and the inhibition at 100 ppm (Monilinia fructicola [2]) was 100%. It also gave an inhibition at 100 ppm [3] of 100%, an inhibition at 1 ppm [3] of 100% and an inhibition at 10 ppm [3] of 100%. For the same compound, the “Antibacterial Activity rating” value (Aerobacter aerogenes) was 9, the “Antibacterial Activity rating” value (Staphylococcus aureus) was 9 and the “Antibacterial Activity rating” value (Xanthomonas vesicatoria) was 9. For the same compound, the “Agar Dilution Plate rating” value (Aspergillus niger [4]) was 5 (100% effectiveness of the test compound against the specified organism), the “Agar Dilution Plate rating” value (Fusarium lycopersici) was 5 (100% effectiveness of the test compound against the specified organism) and the “Agar Dilution Plate rating” value (Monilinia fructicola [5]) was 5 (100% effectiveness of the test compound against the specified organism). The “Agar Dilution Plate rating” value (Pythium de Baryanum) was 5 (100% effectiveness of the test compound against the specified organism), the “Agar Dilution Plate rating” value (Rhizoctonia solani) was 5 (100% effectiveness of the test compound against the specified organism) and the “Agar Dilution Plate rating” value [6] was 5 (100% effectiveness of the test compound against the specified organism). For the same compound, the “Agar Dilution Plate rating” value (Pseudomonas solaracaerum) was 0, the “Agar Dilution Plate rating” value [7] was 5 (100% effectiveness of the test compound against the specified organism) and the “Agar Dilution Plate rating” value (Verticillium albo-atrum) was 5 (100% effectiveness of the test compound against the specified organism).

In the case of `CC(=O)C(CSC(=S)N(C)C)=C(C)O` [Example 9, 2-(1-Hydroxyethylidene)-3-oxobutyl Dimethyldithiocarbamate], the inhibition at 1 ppm (Aspergillus niger [1]) is reported as 0%, the inhibition at 10 ppm (Aspergillus niger [1]) is reported as 0% and the inhibition at 100 ppm (Aspergillus niger [1]) is reported as 100%. The inhibition at 1 ppm (Monilinia fructicola [2]) was 0%, the inhibition at 10 ppm (Monilinia fructicola [2]) was 0% and the inhibition at 100 ppm (Monilinia fructicola [2]) was 100%. It also gave an inhibition at 100 ppm [3] of 100%, an inhibition at 1 ppm [3] of 0% and an inhibition at 10 ppm [3] of 0%. For the same compound, the “Antibacterial Activity rating” value (Aerobacter aerogenes) was 0, the “Antibacterial Activity rating” value (Staphylococcus aureus) was 5 and the “Antibacterial Activity rating” value (Xanthomonas vesicatoria) was 0. For the same compound, the “Agar Dilution Plate rating” value (Aspergillus niger [4]) was 0, the “Agar Dilution Plate rating” value (Fusarium lycopersici) was 0 and the “Agar Dilution Plate rating” value (Monilinia fructicola [5]) was 0. The “Agar Dilution Plate rating” value (Pythium de Baryanum) was 0, the “Agar Dilution Plate rating” value (Rhizoctonia solani) was 0 and the “Agar Dilution Plate rating” value [6] was 0. The “Agar Dilution Plate rating” value (Pseudomonas solaracaerum) was 0, the “Agar Dilution Plate rating” value [7] was 5 (100% effectiveness of the test compound against the specified organism) and the “Agar Dilution Plate rating” value (Verticillium albo-atrum) was 0. The disease control index (Piricularia oryzae; 150 ppm) was 0, the disease control index (Piricularia oryzae; 300 ppm) was 2 and the disease control index (Piricularia oryzae; 600 ppm) was 3. For the same compound, the disease control index (Piricularia oryzae; 1200 ppm) was 4.
